Experiments:
[1] = biological target: T1, α1b-AR (Homo sapiens, UniProt P35368); assay: α1-Adrenergic receptor radio-ligand (125I-HEAT) binding assay, α1b subtype; settings: Receptor Binding, Ki α1b-AR, COS-7 cell membranes, 125I-HEAT
T1 sequence (P35368 1-520): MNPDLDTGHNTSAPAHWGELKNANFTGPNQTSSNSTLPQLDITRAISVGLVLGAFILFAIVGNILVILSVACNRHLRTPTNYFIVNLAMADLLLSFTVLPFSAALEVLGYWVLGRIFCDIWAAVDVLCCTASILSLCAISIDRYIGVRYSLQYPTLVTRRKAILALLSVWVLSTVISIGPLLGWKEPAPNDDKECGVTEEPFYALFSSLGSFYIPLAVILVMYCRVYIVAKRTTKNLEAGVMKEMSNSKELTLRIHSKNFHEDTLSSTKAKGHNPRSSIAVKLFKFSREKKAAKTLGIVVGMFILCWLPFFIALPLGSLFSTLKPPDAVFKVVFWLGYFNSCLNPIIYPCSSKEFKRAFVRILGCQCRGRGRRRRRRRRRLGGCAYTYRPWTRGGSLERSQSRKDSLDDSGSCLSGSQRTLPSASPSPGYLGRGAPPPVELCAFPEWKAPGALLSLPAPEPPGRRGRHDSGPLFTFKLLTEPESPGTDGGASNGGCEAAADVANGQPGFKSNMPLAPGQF

[2] = biological target: T2, α1a-AR (Homo sapiens, UniProt P35348); assay: α1-Adrenergic receptor radio-ligand (125I-HEAT) binding assay, α1a subtype; settings: COS-7 cell membranes, 125I-HEAT
T2 construct: expressed in transfected cells; host or cells: COS-7
T2 sequence (P35348 1-466): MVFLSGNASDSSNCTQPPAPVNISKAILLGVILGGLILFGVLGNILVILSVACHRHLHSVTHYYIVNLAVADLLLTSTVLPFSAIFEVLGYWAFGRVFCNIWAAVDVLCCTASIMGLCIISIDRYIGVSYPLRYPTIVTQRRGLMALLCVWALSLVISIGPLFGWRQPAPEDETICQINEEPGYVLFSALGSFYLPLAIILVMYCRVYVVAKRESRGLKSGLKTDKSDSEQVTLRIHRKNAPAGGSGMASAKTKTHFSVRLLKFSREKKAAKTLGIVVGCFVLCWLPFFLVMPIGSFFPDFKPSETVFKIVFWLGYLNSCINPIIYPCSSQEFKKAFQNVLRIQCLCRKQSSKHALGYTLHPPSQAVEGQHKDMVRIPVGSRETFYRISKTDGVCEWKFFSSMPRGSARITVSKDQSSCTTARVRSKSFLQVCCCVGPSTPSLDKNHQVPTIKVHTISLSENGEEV
Method in brief: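 Membranes from COS-7 cells transfected with the α1a-AR were incubated with 50 pM final ¹²⁵I-HEAT and test compound (1 pM–10 μM final, half-log steps) in Tris/EDTA/NaCl buffer pH 7.4 for 1 hr at rt. Bound radioactivity was counted after GF/C filtration, in triplicate.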

[3] = biological target: T3, α1d-AR (Homo sapiens, UniProt P25100); assay: α1-Adrenergic receptor radio-ligand (125I-HEAT) binding assay, α1d subtype; settings: COS-7 cell membranes, 125I-HEAT; read-out: Receptor Binding, Ki α1d-AR
T3 construct: expressed in transfected cells; host or cells: COS-7
T3 sequence (P25100 1-572): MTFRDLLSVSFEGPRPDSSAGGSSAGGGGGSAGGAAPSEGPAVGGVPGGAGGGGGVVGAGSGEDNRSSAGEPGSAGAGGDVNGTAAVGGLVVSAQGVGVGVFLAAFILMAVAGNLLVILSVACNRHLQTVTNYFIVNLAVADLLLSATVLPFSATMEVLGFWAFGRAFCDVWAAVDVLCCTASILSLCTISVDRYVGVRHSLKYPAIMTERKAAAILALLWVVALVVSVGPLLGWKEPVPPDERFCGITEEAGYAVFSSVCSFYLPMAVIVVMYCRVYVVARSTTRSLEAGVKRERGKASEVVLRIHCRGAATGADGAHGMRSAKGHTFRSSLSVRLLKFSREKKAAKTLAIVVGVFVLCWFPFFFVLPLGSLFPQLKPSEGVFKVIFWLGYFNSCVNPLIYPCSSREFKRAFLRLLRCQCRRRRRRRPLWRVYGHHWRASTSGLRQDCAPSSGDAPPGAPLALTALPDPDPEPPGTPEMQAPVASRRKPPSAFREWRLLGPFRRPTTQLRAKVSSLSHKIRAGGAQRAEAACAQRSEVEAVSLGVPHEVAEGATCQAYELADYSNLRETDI

Ki [1] [nM] | Ki [2] [nM] | Ki [3] [nM] | Compound
176 | 13.9 | 5.2 | COc1ccc(S(=O)(=O)N[C@H]2CC[C@@H](N3CCN(c4ccc(F)cc4OCC(F)(F)F)CC3)CC2)cc1OC [Cpd 75, N-cis-(4-{4-[4-Fluoro-2-(2,2,2-trifluoro-ethoxy)-phenyl]-piperazin-1-yl}-cyclohexyl)-3,4-dimethoxy-benzenesulfonamide]
196 | 17 | 8.5 | COc1ccc(Cl)cc1S(=O)(=O)N[C@H]1CC[C@@H](N2CCN(c3ccc(F)cc3OCC(F)(F)F)CC2)CC1 [Cpd 76, 5-Chloro-N-cis-(4-{4-[4-fluoro-2-(2,2,2-trifluoro-ethoxy)-phenyl]-piperazin-1-yl}-cyclohexyl)-2-methoxy-benzenesulfonamide]
206 | 43 | 29 | O=S(=O)(N[C@H]1CC[C@@H](N2CCN(c3ccc(F)cc3OCC(F)(F)F)CC2)CC1)c1cc(Cl)ccc1F [Cpd 77, 5-Chloro-2-fluoro-N-cis-(4-{4-[4-fluoro-2-(2,2,2-trifluoro-ethoxy)-phenyl]-piperazin-1-yl}-cyclohexyl)-benzenesulfonamide]
44 | 340 | 47 | COc1ccc(Cl)cc1S(=O)(=O)N[C@H]1CC[C@H](N2CCN(c3ccc(F)cc3OC(C)C)CC2)CC1 [Cpd 78, 5-Chloro-N-trans-{4-[4-(4-fluoro-2-isopropoxy-phenyl)-piperazin-1-yl]-cyclohexyl}-2-methoxy-benzenesulfonamide]
107 | 5.4 | 14 | CC(C)Oc1cc(F)ccc1N1CCN([C@H]2CC[C@H](NS(=O)(=O)c3cc(Cl)ccc3F)CC2)CC1 [Cpd 79, 5-Chloro-2-fluoro-N-trans-{4-[4-(4-fluoro-2-isopropoxy-phenyl)-piperazin-1-yl]-cyclohexyl}-benzenesulfonamide]
87 | 21 | 38 | COc1ccc(S(=O)(=O)N[C@H]2CC[C@H](N3CCN(c4ccc(F)cc4OCC(F)(F)F)CC3)CC2)cc1OC [Cpd 80, N-trans-(4-{4-[4-Fluoro-2-(2,2,2-trifluoro-ethoxy)-phenyl]-piperazin-1-yl}-cyclohexyl)-3,4-dimethoxy-benzenesulfonamide]
90 | 34 | 51 | COc1ccc(Cl)cc1S(=O)(=O)N[C@H]1CC[C@H](N2CCN(c3ccc(F)cc3OCC(F)(F)F)CC2)CC1 [Cpd 81, 5-Chloro-N-trans-(4-{4-[4-fluoro-2-(2,2,2-trifluoro-ethoxy)-phenyl]-piperazin-1-yl}-cyclohexyl)-2-methoxy-benzenesulfonamide]
442 | 52 | 240 | O=S(=O)(N[C@H]1CC[C@H](N2CCN(c3ccc(F)cc3OCC(F)(F)F)CC2)CC1)c1cc(Cl)ccc1F [Cpd 82, 5-Chloro-2-fluoro-N-trans-(4-{4-[4-fluoro-2-(2,2,2-trifluoro-ethoxy)-phenyl]-piperazin-1-yl}-cyclohexyl)-benzenesulfonamide]
75 | 1.7 | 0.58 | COc1ccc(S(=O)(=O)N[C@H]2CC[C@@H](N3CCN(c4cc(F)ccc4OCC(F)(F)F)CC3)CC2)cc1OC [Cpd 83, N-cis-(4-{4-[5-Fluoro-2-(2,2,2-trifluoro-ethoxy)-phenyl]-piperazin-1-yl}-cyclohexyl)-3,4-dimethoxy-benzenesulfonamide]
220 | 33 | 36.1 | COc1ccc(S(=O)(=O)N[C@H]2CC[C@H](N3CCN(c4cc(F)ccc4OCC(F)(F)F)CC3)CC2)cc1OC [Cpd 84, N-trans-(4-{4-[5-Fluoro-2-(2,2,2-trifluoro-ethoxy)-phenyl]-piperazin-1-yl}-cyclohexyl)-3,4-dimethoxy-benzenesulfonamide]

— patent US20060173015A1, “Cyclohexyldiamines as selective alpha 1a/1d adrenoreceptor antagonists for the treatment of benign prostatic hypertrophy and lower urinary tract symptoms” (priority 2004, published 2006)
